The source of these data is patent US8193186B2, “Pyridopyrazines and the use thereof as kinase inhibitors” (AEterna Zentaris GmbH, priority 2003, dated 2012).

pIC50: −log10 of the molar value. Counter-ions that a name gives are not always drawn. Some results are limits rather than exact numbers.

The test system of the first series is c-Raf-Mek-Erk cascade. In words: c-Raf-Mek-Erk ELISA (cell-free reconstituted kinase cascade, Erk phosphorylation). The class given is biochemical, human. Particulars: inhibition of Erk phosphorylation, 1 mM ATP, 10 concentrations 31.6 pM-100 μM, read-out: IC50. Here is the method: The inhibitory effect on the following human serine/threonine and tyrosine kinases of the compounds of the invention was tested in conventional kinase assays: PKB/Akt1, c-Raf-Mek-Erk, B-Raf-Mek-Erk, Mek-Erk, MAPKs, PDGFRbeta, Flt-3, c-Kit, c-Abl, KDR, FGFR1 and IGF1R. Both the full-length kinases and truncated fragments—but at least the cytoplasmic kinase domains—were employed. The kinases were prepared as recombinant fusion proteins with GST (glutathion S-transferase) or HIS Tag in Sf9 cell culture. Depending on the substrate type, the various kinase reactions were carried out in sandwich ELISA formates or by means of a simple substrate adsorption assay on 96-well Flashplates (Perkin Elmer).
The testing on substances on the c-Raf-Mek-Erk cascade is described in detail below. Selected test results for the c-Raf-Mek-Erk assays are then listed.
Procedure: c-Raf-Mek-Erk ELISA
Potential inhibitors were firstly investigated at a concentration of 20 μg/ml in initial single-dose determinations on 96-well microtiter plates (MTPs). Substances with >70% inhibition were employed for dose-response studies.
Reconstitution of the c-Raf-Mek-Erk cascade was quantified with the aid of a cell-free ELISA.
A typical kinase assay was carried out in a final volume of 50 μl with in each case 20-150 ng of Raf, Mek, Erk protein, 1 mM ATP, 10 mM MgCl2, 150 mM NaCl, 25 mM beta-glycerophosphate, 25 mM Hepes pH 7.5. Before the kinase reaction, the test substances were each preincubated singly with each of the three kinase proteins at room temperature for 30 minutes. For the kinase reaction, the kinases preincubated with test substance were combined and incubated at 26° C. for 30 minutes. The reaction was stopped by a final concentration of 2% SDS and 10 minutes at 50° C. in a heating block.
For the immunodetection, the reaction mixtures were transferred to 96-well MTPs coated with anti-Erk Ab(K-23, Santa Cruz Biotechnology, incubated at room temperature for 60 minutes and washed 3× with TBST. Anti-phospho-Erk Ab (#9106, New England Biolabs) 1:500 in 50 μl of TBST/1% BSA, was added and incubated at 4° C. overnight. After the MTPs had been washed 3× with TBST, secondary anti-mouse IgG^POD conjugate (#NA931, Pharmacia) 1:2500 was added, incubated at room temperature for 1 h and again washed 3× with TBST. For colorimetric detection of the kinase reaction, 50 μl of OPD (o-phenyldiamine dihydrochloride) chromogen buffer were pipetted into each of the wells and incubated at 37° C. for 30 minutes. The colour reaction was then determined in an ELISA reader at 492 nm.
The experimental determination of dose-response plots took place using the same experimental design with 10 semilogarithmically graded concentrations from 31.6 pM-100 μM. The IC50 values were calculated in GraphPadPrism.
Broadly, the pIC50 is −log10 of the IC50, conventionally taken in molar units. Consider `C=CCNC(=S)Nc1ccc2ncc(-c3ccc4ccccc4c3)nc2n1` [Example 2, 1-Allyl-3-(3-naphthalen-2-ylpyrido[2,3-b]pyrazin-6-yl)thiourea], for which the negative-log IC50 (pIC50) was 4.80. As to `O=C(Nc1ccc(Cl)c(C(F)(F)F)c1)Nc1ccc2ncc(-c3ccccc3)nc2n1` [Example 34, 1-(4-Chloro-3-trifluoromethylphenyl)-3-(3-phenylpyrido[2,3-b]pyrazin-6-yl)urea], the pIC50 was under 4.00. The same measure, in the same setting: in the case of `CC(C)(C)NC(=S)Nc1ccc2ncc(-c3ccccc3)nc2n1` [Example 10, 1-tert-Butyl-3-(3-phenylpyrido[2,3-b]pyrazin-6-yl)thiourea] it was under 4.00; in that of `Cc1ccc(NC(=O)Nc2ccc3ncc(-c4ccccc4)nc3n2)cc1` [Example 33, 1-(3-Phenylpyrido[2,3-b]pyrazin-6-yl)-3-p-tolylurea], under 4.00; in that of `O=C(NCCN1CCOCC1)Nc1ccc2ncc(-c3ccccc3)nc2n1` [Example 35, 1-(2-Morpholin-4-ylethyl)-3-(3-phenylpyrido[2,3-b]pyrazin-6-yl)urea], 4.82. On the same count and under the same terms, in the case of `C=C(C)CNC(=S)Nc1ccc2ncc(-c3ccc(OC)cc3)nc2n1` [Example 7, 1-[3-(4-Methoxyphenyl)pyrido[2,3-b]pyrazin-6-yl]-3-(2-methylallyl)thiourea] it was 4.37; in that of `COc1ccc(-c2cnc3ccc(NC(=S)Nc4ccc([N+](=O)[O-])cc4)nc3n2)cc1` [Example 9, 1-[3-(4-Methoxyphenyl)pyrido[2,3-b]pyrazin-6-yl]-3-(4-nitrophenyl)thiourea], under 4.00; in that of `S=C(Nc1ccc2ncc(-c3ccccc3)nc2n1)NC1CC1` [Example 11, 1-Cyclopropyl-3-(3-phenylpyrido[2,3-b]pyrazin-6-yl)thiourea], 6.05. As to `C=C(C)CNC(=S)Nc1ccc2ncc(-c3ccc4ccccc4c3)nc2n1` [Example 6, 1-(2-Methylallyl)-3-(3-naphthalen-2-ylpyrido[2,3-b]pyrazin-6-yl)thiourea], the pIC50 is about 4.00. As to `S=C(NCc1ccccc1)Nc1ccc2ncc(-c3ccccc3)nc2n1` [Example 13, 1-Benzyl-3-(3-phenylpyrido[2,3-b]pyrazin-6-yl)thiourea], the pIC50 was under 4.00. For `C=C(C)CNC(=S)Nc1ccc2ncc(-c3ccccc3)nc2n1` [Example 5, 1-(2-Methylallyl)-3-(3-phenylpyrido[2,3-b]pyrazin-6-yl)thiourea], the pIC50 was about 6.00. Still for that read-out and setting: in the case of `C=CCNC(=S)Nc1ccc2ncc(-c3ccccc3)nc2n1` [Example 1, 1-allyl-3-(3-phenylpyrido[2,3-b]pyrazin-6-yl)thiourea] it was about 6.00.

Take `O=[N+]([O-])c1ccc(NC(=S)Nc2ccc3ncc(-c4ccc5ccccc5c4)nc3n2)cc1` [Example 8, 1-(3-Naphthalen-2-ylpyrido[2,3-b]pyrazin-6-yl)-3-(4-nitrophenyl)thiourea]: the pIC50 was under 4.00. Still for that read-out and setting: in the case of `Fc1ccc(NC(=S)Nc2ccc3ncc(-c4ccccc4)nc3n2)cc1` [Example 14, 1-(4-Fluorophenyl)-3-(3-phenylpyrido[2,3-b]pyrazin-6-yl)thiourea] it was about 4.30. On to `C=CCNC(=S)Nc1ccc2ncc(-c3ccc(OC)cc3)nc2n1` [Example 3, 1-Allyl-3-[3-(4-methoxyphenyl)pyrido[2,3-b]pyrazin-6-yl]thiourea], for which the negative logarithm of the IC50 (pIC50) was about 6.00.

The same series, now with this note: read-out: IC50 values, inhibition of Erk phosphorylation.
As to `CNC(=S)Nc1ccc2ncc(-c3ccccc3)nc2n1` [Example 12, 1-Methyl-3-(3-phenylpyrido[2,3-b]pyrazin-6-yl)thiourea], the pIC50 was 6.40.

Take `C=CCNC(=S)Nc1ccc2ncc(-c3ccc(O)cc3)nc2n1` [Example 4, 1-Allyl-3-[3-(4-hydroxyphenyl)pyrido[2,3-b]pyrazin-6-yl]thiourea hydrochloride]: the pIC50 was 6.40.

Tested on in the next series: not given
Experiment: not given
Settings: not given
In general, melting point refers to the temperature, or range, at which the solid turns liquid. As for `CC=CNC(=S)Nc1ccc2nc(-c3ccc(O)cc3)c(-c3ccc(O)cc3)nc2n1` [Example 28, 1-[2,3-Bis(4-hydroxyphenyl)pyrido[2,3-b]pyrazin-6-yl]-3-(propenyl)thiourea], the melting point is 240 °C (dec.). On the same count and under the same terms, as for `C#CCNC(=S)Nc1ccc2ncc(-c3ccc(O)cc3)nc2n1` [Example 24, 1-[3-(4-Hydroxyphenyl)pyrido[2,3-b]pyrazin-6-yl]-3-prop-2-ynylthiourea], the figure is 350 °C (dec.).
